Here are results for five molecules from ChEMBL document CHEMBL4229348, “Structure-activity relationship studies of ultra-short peptides with potent activities against fluconazole-resistant Candida albicans” (Eur J Med Chem, 2018).

Values after ≈ are worked out from the molar mass of the structure shown. Active and inactive are the calls of the source. The calls are words filed in the database; no cut-off is given here. Peptide text beside a SMILES is read from it.

For data set [1], the system named is Candida albicans. The data set can be described thus: Antifungal activity against fluconazole-resistant Candida albicans TTSH-CALB01 after overnight incubation by CLSI broth microdilution method. Type of data set: functional.
In data set [2] the test system is Candida albicans. Briefly: Antifungal activity against fluconazole-resistant Candida albicans ATCC 64550 after overnight incubation by CLSI broth microdilution method. Type of data set: functional. For orientation: In broth dilution the organism is exposed to a series of concentrations in liquid medium.
The test system of data set [3] is Candida albicans. Briefly: Antifungal activity against fluconazole-resistant Candida albicans ATCC MYA-573 after overnight incubation by CLSI broth microdilution method. Type of data set: functional.
Data set [4] has as its system Candida albicans. The data set can be described thus: Antifungal activity against fluconazole-resistant Candida albicans ATCC 200955 after overnight incubation by CLSI broth microdilution method. Type of data set: functional.
Data set [5] relates to Candida albicans. The data set can be described thus: Antifungal activity against fluconazole-resistant Candida albicans NUH-K6004 after overnight incubation by CLSI broth microdilution method. Type of data set: functional.
Another data set relates to NHDF. The data set can be described thus: Cytotoxicity against NHDF assessed as reduction in cell viability up to 200 uM after 5 days by CellTiter-Glo assay. As to conditions: human, 120 h. In kind it is cell-based.
Data set [6] is described as follows: Retention time of the compound at 0.4 mM by HPLC analysis. Type of data set: physicochemical. Conditions: 400 µM.
Data set [7] concerns Saccharomyces cerevisiae. The data set can be described thus: Induction of membrane permeabilization in Saccharomyces cerevisiae BY4743 assessed as propidium iodide uptake at 23 uM preincubated for 2.5 hrs followed by propidium iodide addition and measured after 20 mins by bright-field and fluorescence microscopic analysis (reference value: 98%). Type of data set: functional.

Data set [8] concerns Saccharomyces cerevisiae. Briefly: Induction of membrane permeabilization in Saccharomyces cerevisiae BY4743 assessed as propidium iodide uptake at 46 uM preincubated for 2.5 hrs followed by propidium iodide addition and measured after 20 mins by bright-field and fluorescence microscopic analysis (reference value: 98%). In kind it is functional.
The test system of data set [9] is Candida albicans. Briefly: Antifungal activity against fluconazole-resistant Candida albicans TTSH-CALB02 after overnight incubation by CLSI broth microdilution method. Type of data set: functional.
In data set [10] the test system is Saccharomyces cerevisiae. The data set can be described thus: Growth inhibition of Saccharomyces cerevisiae BY4743 incubated for 16 to 24 hrs. Type of data set: functional.
The subject of data set [11] is Candida albicans. Briefly: Antifungal activity against fluconazole-resistant Candida albicans ATCC 96901 after overnight incubation by CLSI broth microdilution method. Type of data set: functional.
For data set [12], the system named is Candida albicans. Briefly: Antifungal activity against fluconazole-resistant Candida albicans ATCC 64124 after overnight incubation by CLSI broth microdilution method. Type of data set: functional.
The subject of data set [13] is Candida albicans. The data set can be described thus: Fungicidal activity against fluconazole-resistant Candida albicans ATCC 64550 at 4 times MIC incubated for overnight flowed by replating and measured after 24 hrs. In kind it is functional, organism-based.
The test system of data set [14] is Candida albicans. The data set can be described thus: Fungistatic activity against fluconazole-resistant Candida albicans ATCC 64550 at 4 times MIC incubated for overnight flowed by replating and measured after 24 hrs. In kind it is functional, organism-based.
Data set [15] can be described thus: Cytotoxicity against human bone marrow cells assessed as inhibition of colony formation. Type of data set: cell-based, Bone marrow cell.
Data set [16] is described as follows: Cytotoxicity against NHDF assessed as reduction in cell viability after 5 days by CellTiter-Glo assay. Conditions: human, NHDF cells. In kind it is cell-based.
In data set [17] the test system is Candida albicans. Briefly: Potency index, ratio of omiganan MIC to compound MIC for antifungal activity against fluconazole-resistant Candida albicans ATCC 64550. Type of data set: functional.
The test system of data set [18] is Candida albicans. The data set can be described thus: Antifungal activity against fluconazole-susceptible Candida albicans. In kind it is functional.

As for `CCCC[C@H](NC(=O)[C@H](CCCCN)NC(=O)[C@H](CCCC)NC(=O)[C@H](CCCCN)NC(=O)[C@H](CCCC)NC(=O)[C@H](CCCCN)NC(=O)[C@@H](N)CCCC)C(=O)N[C@@H](CCCCN)C(N)=O` (HELM PEPTIDE1{[Nle].K.[Nle].K.[Nle].K.[Nle].K.[am]}$$$$V2.0), the MIC (commonly the lowest concentration that inhibits growth of the organism) against Candida albicans [1] was 1.56 µM (≈ 1.53 µg/mL); against Candida albicans [2] it was 1.56 µM (≈ 1.53 µg/mL); against Candida albicans [3], 3.13 µM (≈ 3.07 µg/mL); in the data set with Candida albicans [4], 1.56 µM (≈ 1.53 µg/mL); against Candida albicans [5] it was 1.56 µM (≈ 1.53 µg/mL); against Candida albicans [9] it was 1.56 µM (≈ 1.53 µg/mL). Also, the minimal inhibitory concentration (MIC) was found to be 1.56 µM (≈ 1.53 µg/mL) in the data set with Candida albicans [11] and 3.13 µM (≈ 3.07 µg/mL) with Candida albicans [12]. Further, the Activity result was “Non-Toxic” in the data set with NHDF, 75% in the data set with Saccharomyces cerevisiae [7] and 100% in the data set with Saccharomyces cerevisiae [8]. The molecule further registered a Retention_time in [6] of 14 min. Further, in the data set on Saccharomyces cerevisiae [10], it took 5.75 µM to inhibit growth by half (GI50). Besides, the TGI with Saccharomyces cerevisiae [10] (read-out: GI100) amounted to 5.75 µM. Moreover, the result in the data set on Candida albicans [13] was Active.
For the molecule `OC(Cn1cncn1)(Cn1cncn1)c1ccc(F)cc1F` [FLUCONAZOLE], the MIC in the data set with Candida albicans [1], against Candida albicans [2], with Candida albicans [3], in the data set with Candida albicans [4], in the data set with Candida albicans [5] and in the data set on Candida albicans [9] was greater than 100 µM throughout. Besides, the MIC against Candida albicans [11] and in the data set with Candida albicans [12] was greater than 100 µM throughout.
Turning to `Clc1ccc(COC(Cn2ccnc2)c2ccc(Cl)cc2Cl)c(Cl)c1` (centres undefined) [MICONAZOLE], the outcome in the data set with Candida albicans [14] was Active. In addition, the minimal inhibitory concentration (MIC) worked out at 12.5 µM (≈ 5.2 µg/mL) in the data set with Candida albicans [1]; 12.5 µM (≈ 5.2 µg/mL) against Candida albicans [2]; 6.25 µM (≈ 2.6 µg/mL) with Candida albicans [3]; 12.5 µM (≈ 5.2 µg/mL) against Candida albicans [4]; 12.5 µM (≈ 5.2 µg/mL) against Candida albicans [5]; 12.5 µM (≈ 5.2 µg/mL) against Candida albicans [9]. Besides, the MIC against Candida albicans [11] turned out to be 6.25 µM (≈ 2.6 µg/mL); with Candida albicans [12], 12.5 µM (≈ 5.2 µg/mL). Besides, in [15], the GI50 (in general, the concentration at which growth is held to half of that of the control) was 12.8 µM. Further, the GI50 at 120 h in [16] was 10.3 µM.
Turning to `CC(O)CO` (centres undefined) [PROPYLENE GLYCOL], the Activity result in the data set with NHDF is on record as “Non-Toxic”.
For the molecule H-IKIKIKIK-NH2, the values for the MIC in the data set on Candida albicans [2] and against Candida albicans [18] were 3.13 µM and 1.56 µM, respectively. Moreover, the Ratio in the data set on Candida albicans [17] was determined as 16. Also, the Retention_time in [6] is given as 13.4 min.
